This passage reports IC50 results from patent US20210238139A1, “MODULATORS OF TRYPTOPHAN CATABOLISM” (E-Therapeutics PLC, priority 2018, published 2021).

A value given as a limit tells only on which side of the number the result lay.

The assay concerns SK-OV-3 cells. The experiment in a line: Effect of compounds on tryptophan catabolism in SK-OV-3 cell line (inhibition of kynurenine production, LC-MS/MS). Format: cell-based. The note with it: Homo sapiens, SK-OV-3, 24 h, SK-OV-3 cell line, 24 h incubation, kynurenine in supernatant by LC-MS/MS; read-out: IC50 Ranges (ic50 values for inhibition of Kynurenine production). The procedure, abridged: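 Kynurenine in supernatants quantified by LC-MS/MS after 24 h compound exposure (37 °C; top 30 μM, eight 3-fold steps, duplicate) in DMEM F-12 containing 6 mg/mL L-tryptophan. Cells pre-plated overnight in McCoy's 5A with 10% FBS. Viability checked in parallel by ATP luminescence.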

In the case of `CC(c1cccc(C#N)c1)N(C(=O)Nc1ccc(C#N)cc1)C1CCC1` (racemic) [Compound 184, 3-(4-cyanophenyl)-1-[1-(3-cyanophenyl)ethyl]-1-cyclobutyl-urea], the IC50 was in the range of 100 to 500 nM.
The value for `Cn1nccc1N(Cc1ccnc(C(F)(F)F)c1)C(=O)Nc1ccc(Cl)cc1` [Compound 302, 3-(4-chlorophenyl)-1-(2-methylpyrazol-3-yl)-1-[[2-(trifluoromethyl)-4-pyridyl]methyl]urea] was 1000 to 5000 nM.
Take `CC(c1cccc(C#N)c1)N(C(=O)Nc1ccc(C#N)cc1)C1CCCC1` (racemic) [Compound 188, 3-(4-cyanophenyl)-1-[1-(3-cyanophenyl)ethyl]-1-cyclopentyl-urea]: the IC50 was in the range of 100 to 500 nM.
As for `Cc1ccc(CN(C(=O)Nc2ccc(Cl)cc2)c2ccn(C)n2)o1` [Compound 226, 3-(4-chlorophenyl)-1-[(5-methyl-2-furyl)methyl]-1-(1-methylpyrazol-3-yl)urea], the IC50 fell in the range of 100 to 500 nM.
Take `N#Cc1cccc(CN(C(=O)Nc2ccc(F)cc2)C2CCCC2)n1` [Compound 126, 1-[(6-cyano-2-pyridyl)methyl]-1-cyclopentyl-3-(4-fluorophenyl)urea]: the IC50 was 500 to 1000 nM.
The same measure for `Cc1ccc(CN(C(=O)Nc2ccc(Cl)cc2)C2CC(F)C2)o1` (stereo not drawn) [Compound 222, 3-(4-chlorophenyl)-1-(3-fluorocyclobutyl)-1-[(5-methyl-2-furyl)methyl]urea]: 100 to 500 nM; for `CCc1ccc(CN(C(=O)Nc2ccc(C#N)cc2)c2cnoc2C)o1` [Compound 299, 3-(4-cyanophenyl)-1-[(5-ethyl-2-furyl)methyl]-1-(5-methylisoxazol-4-yl)urea]: 100 to 500 nM; for `O=C(Nc1ccccc1)N(Cc1nccs1)C1CCCC1` [Compound 35, 1-cyclopentyl-3-phenyl-1-(thiazol-2-ylmethyl)urea]: 1000 to 5000 nM.
With `CN(C(=O)N(Cc1cccs1)C1CCCC1)c1ccccc1` [Compound 23, 1-cyclopentyl-3-methyl-3-phenyl-1-(2-thienylmethyl)urea], the IC50 was > 5000 nM.
The value for `Cc1ccc(N(Cc2cccs2)C(=O)NC2CCCCC2)cc1` [Compound 201, 3-cyclohexyl-1-(p-tolyl)-1-(2-thienylmethyl) urea] was 1000 to 5000 nM; that for `C=CCNC(=O)N(Cc1cccs1)C1CCCC1` [Compound 15, 3-allyl-1-cyclopentyl-1-(2-thienylmethyl)urea] was 1000 to 5000 nM; that for `CN1CCC(N(Cc2ccc3ncsc3c2)C(=O)Nc2ccc(C#N)cc2)CC1` [Compound 264, 1-(1,3-benzothiazol-6-ylmethyl)-3-(4-cyanophenyl)-1-(1-methyl-4-piperidyl) urea] was > 5000 nM.
The same measure for `Cn1ncc(CN(C(=O)Nc2ccc(F)c(F)c2)C2CCCC2)c1Cl` [Compound 43, 1-[(5-chloro-1-methyl-pyrazol-4-yl)methyl]-1-cyclopentyl-3-(3,4-difluorophenyl) urea]: 1000 to 5000 nM; for `O=C(Nc1cccc(F)c1)N(Cc1cccs1)C1CCCC1` [Compound 55, 1-cyclopentyl-3-(3-fluorophenyl)-1-(2-thienylmethyl)urea]: 500 to 1000 nM; for `Cc1ccc(CN(C(=O)Nc2ccc(Cl)cc2)C23CC(C2)C3)o1` [Compound 284, 1-(1-bicyclo[1.1.1]pentanyl)-3-(4-chlorophenyl)-1-[(5-methyl-2-furyl)methyl]urea]: 100 to 500 nM.
The same measure for `Cc1ccc(CN(C(=O)Nc2ccc(C#N)nc2)C2CCCC2)o1` [Compound 124, 3-(6-cyano-3-pyridyl)-1-cyclopentyl-1-[(5-methyl-2-furyl)methyl]urea]: 100 to 500 nM; for `Cc1ccc(CN(C(=O)Nc2ccc(C#CCc3ccccc3)cc2)C2CCCC2)o1` [Compound 156, 1-cyclopentyl-1-[(5-methyl-2-furyl)methyl]-3-[4-(3-phenylprop-1-ynyl)phenyl]urea]: 500 to 1000 nM; for `COc1ccc(NC(=O)N(Cc2ccc(C)o2)C2CCCC2)cc1` [Compound 290, 1-cyclopentyl-3-(4-methoxyphenyl)-1-[(5-methyl-2-furyl)methyl]urea]: 100 to 500 nM.
`O=C(NC1CCCCC1)N(Cc1cccs1)C1CCCC1` [Compound 12, 3-cyclohexyl-1-cyclopentyl-1-(2-thienylmethyl) urea]: the IC50 lay in the range of 1000 to 5000 nM.
The value for `Cc1ncc(CN(C(=O)Nc2ccc(C#N)cc2)C2CCCC2)o1` [Compound 291, 3-(4-cyanophenyl)-1-cyclopentyl-1-[(2-methyloxazol-5-yl)methyl]urea] was 500 to 1000 nM; that for `CCc1ccc(NC(=O)N(Cc2nccs2)C2CCCC2)cc1` [Compound 36, 1-cyclopentyl-3-(4-ethylphenyl)-1-(thiazol-2-ylmethyl)urea] was 1000 to 5000 nM.
The same measure for `Cc1ccc(CN(C(=O)Nc2ccc(O)cc2)C2CCCC2)o1` [Compound 303, 1-cyclopentyl-3-(4-hydroxyphenyl)-1-[(5-methyl-furyl)methyl]urea]: > 5000 nM; for `O=C(Nc1ccc(Cl)cc1)N(Cc1cnccn1)C1CCCC1` [Compound 71, 3-(4-chlorophenyl)-1-cyclopentyl-1-(pyrazin-2-ylmethyl)urea]: 500 to 1000 nM.
The same measure for `Cc1ccc(CN(C(=O)Nc2ccc(C#N)cc2)C2CCC(C#N)C2)o1` (stereo not drawn) [Compound 224, 1-(3-cyanocyclopentyl)-3-(4-cyanophenyl)-1-[(5-methyl-2-furyl)methyl]urea]: 100 to 500 nM.
For the compound `Cc1ccc(CN(C(=O)Nc2ccc(Cl)cc2)c2nonc2C)o1` [Compound 298, 3-(4-chlorophenyl)-1-[(5-methyl-2-furyl)methyl]-1-(4-methyl-1,2,5-oxadiazol-3-yl)urea], the IC50 is < 100 nM.
Regarding `Cc1ccc(CN(C(=O)Nc2ccc(F)cc2)c2ncco2)o1` [Compound 180, 3-(4-fluorophenyl)-1-[(5-methyl-2-furyl)methyl]-1-oxazol-2-yl-urea], the IC50 was > 5000 nM.
Regarding `COC1CC(N(Cc2ccc(C)o2)C(=O)Nc2ccc(Cl)cc2)C1` (stereo not drawn) [Compound 251, 3-(4-chlorophenyl)-1-(3-methoxycyclobutyl)-1-[(5-methyl-2-furyl)methyl]urea], the IC50 is 500 to 1000 nM.
The value for `Cc1ccc(CN(C(=O)Nc2ccc(C#N)cc2)c2cnn(C)c2)o1` [Compound 218, 3-(4-cyanophenyl)-1-[(5-methyl-2-furyl)methyl]-1-(1-methylpyrazol-4-yl)urea] was 500 to 1000 nM; that for `Cc1ccc(CN(C(=O)Nc2ccc(C#N)cc2)C2CCC(F)(F)C2)o1` (stereo not drawn) [Compound 244, 3-(4-cyanophenyl)-1-(3,3-difluorocyclopentyl)-1-[(5-methyl-2-furyl)methyl]urea] was 100 to 500 nM; that for `N#Cc1cccc(CN(C(=O)Nc2ccc(Cl)cc2)C2CCCC2)n1` [Compound 157, 3-(4-chlorophenyl)-1-[(6-cyano-2-pyridyl)methyl]-1-cyclopentyl-urea] was 100 to 500 nM.
The same measure for `Cc1ccc(CN(C(=O)Nc2ccc(C#N)cc2)C2CCCC2(F)F)o1` (stereo not drawn) [Compound 214, 3-(4-cyanophenyl)-1-(2,2-difluorocyclopentyl)-1-[(5-methyl-2-furyl)methyl]urea]: < 100 nM; for `O=C(Nc1ccccc1Cl)N(Cc1cccs1)C1CCCC1` [Compound 2, 3-(2-chlorophenyl)-1-cyclopentyl-1-(2-thienylmethyl)urea]: 1000 to 5000 nM; for `C#Cc1ccc(NC(=O)N(Cc2ccnc(C(F)(F)F)c2)C2CCC2)cc1` [Compound 153, 1-cyclobutyl-3-(4-ethynylphenyl)-1-[[2-(trifluoromethyl)-4-pyridyl]methyl]urea]: < 100 nM.
The same measure for `Cc1ccc(CN(C(=O)Nc2ccc(-c3cnn(C)c3)nc2)C2CCCC2)o1` [Compound 160, 1-cyclopentyl-1-[(5-methyl-2-furyl)methyl]-3-[6-(1-methylpyrazol-4-yl)-3-pyridyl]urea]: 1000 to 5000 nM; for `O=C(Nc1cccnc1)N(Cc1cccs1)C1CCCC1` [Compound 57, 1-cyclopentyl-3-(3-pyridyl)-1-(2-thienylmethyl)urea]: > 5000 nM.
Take `Cc1nocc1N(Cc1cccc(C(F)(F)F)c1)C(=O)Nc1ccc(C#CCO)cc1` [Compound 315, 3-[4-(3-hydroxyprop-1-ynyl)phenyl]-1-(3-methylisoxazol-4-yl)-1-[[3-(trifluoromethyl)phenyl]methyl]urea]: the IC50 was < 100 nM.
On to `CC1(CN(C(=O)Nc2ccc(Cl)cc2)C2CCCC2)CCN(C(=O)OC(C)(C)C)CC1` [Compound 79, tert-butyl 4-[[(4-chlorophenyl)carbamoyl-cyclopentyl-amino]methyl]-4-methyl-piperidine-1-carboxylate], for which the IC50 is 100 to 500 nM.
The same measure for `N#Cc1ccc(NC(=O)N(Cc2cc3ccccc3o2)C2CCCC2)cc1` [Compound 132, 1-(benzofuran-2-ylmethyl)-3-(4-cyanophenyl)-1-cyclopentyl-urea]: 100 to 500 nM.
The value for `Cc1ccc(CN(C(=O)Nc2ccc(C#N)cc2)C2CC(F)C2)o1` (stereo not drawn) [Compound 208, 3-(4-cyanophenyl)-1-(3-fluorocyclobutyl)-1-[(5-methyl-2-furyl)methyl]urea] was 500 to 1000 nM; that for `Cc1ccc(CN(C(=O)Nc2ccc(-c3cscn3)cc2)C2CCCC2)o1` [Compound 106, 1-cyclopentyl-1-[(5-methyl-2-furyl)methyl]-3-(4-thiazol-4-ylphenyl)urea] was 500 to 1000 nM; that for `Cc1nocc1N(Cc1cccc(C(F)(F)F)c1)C(=O)Nc1ccc(-n2cc(CO)nn2)cc1` [Compound 308, 3-[4-[4-(hydroxymethyl)triazol-1-yl]phenyl]-1-(3-methylisoxazol-4-yl)-1-[[3-(trifluoromethyl)phenyl]methyl]urea] was 500 to 1000 nM.
The value for `Cc1ccc(CN(C(=O)Nc2ccc(C#CC3CC3)cc2)C2CCCC2)o1` [Compound 107, 1-cyclopentyl-3-[4-(2-cyclopropylethynyl)phenyl]-1-[(5-methyl-2-furyl)methyl]urea] was < 100 nM.

Usually IC50 stands for the concentration needed to halve the response being measured.
